This is an account of results in paper PMC4535335 (Bioorganic & medicinal chemistry letters, 2014).

Structures are written as SMILES.

For data set [1] the following is noted: cited from earlier work.
For data set [2] the following is noted: cited from earlier work. The source holds these as a separate data set.
The conditions of data set [3]: plasma protein binding; cited from earlier work.
The nature of data set [4]: intrinsic clearance in human hepatic microsomes fortified with NADPH. In kind it is in vitro ADME.
The nature of data set [5]: intrinsic clearance in rat hepatic microsomes fortified with NADPH. In kind it is in vitro ADME. To be noted: OCD3 for OCH3.

As usually defined, the CLint scaled is a measure of how fast metabolising enzymes remove a compound, apart from limits set by blood flow.

Turning to `O=C(c1ccc(F)c(F)c1)N1CCN2C(=O)c3ccccc3[C@@]12c1ccc(Cl)cc1` [ML375], the “brain:plasma Kp” value in data set [1] is 1.8. Moreover, the rat brain fu in data set [2] is recorded as 0.003. The human fu in data set [3] was 0.013.
For `[2H]C([2H])([2H])Oc1ccc([C@@]23c4ccccc4C(=O)N2CCN3C(=O)c2cc(F)c(F)c(F)c2)cc1C` [VU6001005], in data set [4] (OCD3 for OCH3), the “reduction of human in vitro intrinsic clearance relative to VU6000181” value is recorded as ~ 5 fold. This molecule came in with a CLint scaled in data set [4] (human, microsomes) of 4.37 L/h/kg. For the same molecule, in data set [5], the “improvement to rat intrinsic clearance relative to VU6000181” value is on record as “negligible improvement”.
